Measurements taken from publication PMC3436892, “Novel African Trypanocidal Agents: Membrane Rigidifying Peptides” (PLoS ONE, 2012).

Assays:
[1] = Parallax analysis of tryptophan penetration depth; format: physicochemical; details: for F1/F2 ± S.D.: ratio of tryptophan fluorescence intensity (357 nm) with shallow (6,7-dibromo-PC, F1) and deep (9,10-dibromo-PC, F2) quencher, 200 µg/ml liposomes, at least triplicate
Method: The hydrocarbon penetration depth of tryptophans spaced throughout synthetic peptides corresponding to SHP-1 or SHP-3 (Table S1) was determined by parallax analysis with brominated phosphatidylcholine liposomes. Large unilamellar liposomes composed of egg phosphatidylcholine and 10 mol % 1-palmitoyl-2-(6,7-dibromo)stearoyl-sn-glycero-3-phosphocholine (shallow quencher) or 1-palmitoyl-2-(9,10-dibromo)stearoyl-sn-glycero-3-phosphocholine (deep quencher) were constructed by hydration of a thin dry lipid film with phosphate buffered saline. Resulting multilamellar liposomes were made unilameller via extrusion through polycarbonate filters with 0.1 µm pores. Peptides (500 nM) were incubated with 200 µg/ml liposomes in phosphate buffered saline at 37°C for 22 h. Tryptophan fluorescence at 357 nm was measured from at least triplicate trials in the PerkinElmer Life Sciences LS55 spectrofluorometer and an excitation wavelength of 280 nm for SHP-1 and 290 nm for SHP-2, 10 nm excitation and 9 nm emission slit widths. The distance of tryptophans from the bilayer center (ZCF) is calculated from the equation [12]: [drawing 1] Where LC1 is the distance from the center of the bilayer to the shallow quencher, in this case 10.8 Å for 6,7-dibromo-PC [25], F1 is the intensity of tryptophan in the presence of the shallow quencher and F2 is the tryptophan intensity in the presence of the deep quencher, C is the mole fraction of quencher divided by the area of individual phospholipid (70 Å^2), and L21 is the difference in the depth of the two quenchers (2.7 Å). The hydrocarbon insertion depth of tryptophans is then given by one half the bilayer thickness, 29 Å [25], minus ZCF.

[2] = test system: BSF T. b. brucei; assay: 2 h killing assay, BSF T. b. brucei; format: cell-based, Trypanosoma brucei brucei; details: light microscopy (Fig. 1d, Figure S2a)
[3] = test system: Live BSF T. b. brucei; assay: Trypanosome motility scoring by DIC microscopy; format: cell-based, Trypanosoma brucei brucei
Method: All images and videos were acquired with an Axio Observer Z1 equipped with an AxioCam MRm controlled by AxioVision 4.6 software. Videos were acquired with live cells at a density of 1×10^7 cells/mL in HMI 9 media with 10 % fetal bovine serum, incubated with 40 µM SHP at 37°C. Trypanosomes were visualized at magnification 63 × and videos were recorded with 100-ms acquisition times. The motility of BSF trypanosomes was scored directly or from video playback. Trypanosome motility was classified as normal, hyperactive or constricted as described previously. An example of a trypanosome scored as normal is shown in Movie S1. […] Data in figure 2D is shown as the average of at least duplicate trials with standard deviations.

[4] = Calcein release (membrane interaction) assay; format: physicochemical; details: unilamellar egg phosphatidylcholine liposomes with 30 mM calcein, PBS, 0.2-4 µM peptide, fluorescence 484/513 nm (Figure S2b, c)
Method: Trypanosome killing and membrane interaction with SHP tryptophan variants. […] (b) The ability of SHP-1 tryptophan variants, 1 µM SHP-1ΔW1 (orange ? ), 1 µM SHP-1ΔW8 (green ? ), 0.2 µM SHP-1 (blue ? ) and 0.2 µM SHP-1ΔW18 (red ? ), and (c) SHP-3 tryptophan variants, 1 µM SHP-3ΔW1 (orange ? ), 1 µM SHP-3 (blue ? ), 1 µM SHP-3ΔW13 (red ? ) and 4 µM SHP-3ΔW20 (green ? ), to interact with lipid bilayers was determined by monitoring the release of entrapped calcein from unilamellar egg phosphatidylcholine liposomes.
Calcein Release Assays – Membrane permeabilization assays were conducted as described in detail previously. Unilamellar liposomes were constructed as described above but with 30 mM calcein in 10 mM Hepes as the hydration buffer. Untrapped dye was removed by gel filtration (Sephacryl S-300 HR, GE Healthcare). Liposomes were diluted 1:1000 into phosphate buffered saline, and calcein fluorescence was monitored at 513 nm when excited at 484 nm. The percent calcein release was calculated relative to the 100% fluorescence intensity, achieved by the addition of 0.01% Triton X-100.

[5] = test system: BSF T. b. brucei; assay: Flow cytometry peptide binding; format: cell-based, Trypanosoma brucei brucei; details: 8 µM FITC-labeled peptide, 3×10^6 cells/ml, HMI 9 plus 10 % fetal bovine serum, 25 °C, 50,000 cells counted immediately, flow cytometry (Figure S1)
Method: SHP binding to BSF T. b. brucei. FITC-labeled SHP-1 (blue ? ) and SHP-3 (green ? ) were assayed for binding to BSF T. b. brucei via flow cytometry (no peptide, red ? ) . Trypanosomes were adjusted to 3 × 10^6 cells/ml in HMI 9 media with 10 % fetal bovine serum, 8 µM FITC-SHP-1 or FITC-SHP-3 was added and 50,000 cells were immediately counted.
Flow Cytometry – Peptide binding to BSF T. b. brucei was monitored by flow cytometry as described previously. Binding assays were performed with 3 × 10^6 cells/ml in HMI 9 plus 10 % fetal bovine serum at 25 °C. FITC-labeled SHP-1 or SHP-3 was added to a final concentration of 8 µM and 50,000 cells were immediately counted on a CyAn ADP flow cytometer (Dako). Data were analyzed with FlowJo software (TreeStar Inc.).

[6] = 500 nM peptide, PBS, 37°C, 22 h
[7] = 40 µM SHP, 37°C, 1×10^7 cells/mL, HMI 9 with 10 % fetal bovine serum, DIC microscopy, at least duplicate (Fig. 2d)

Sequence: FHQIGAALLYFYGIILNSIW [SHP-3∆W20, SHP-3 tryptophan variant, Trp at position 20]
- F1/F2 ± S.D. [1, 6]: 1.1620 ± 0.3194

Sequence: FHQIGAALLYFYWIILNSIY [SHP-3∆W13, SHP-3 tryptophan variant, Trp at position 13]
- F1/F2 ± S.D. [1, 6]: 0.9912 ± 0.0787

Sequence: FHQIWAALLYFYGIILNSIY [SHP-3, non-trypanocidal small hydrophobic peptide derived from an apolipoprotein]
- trypanocidal activity against BSF T. b. brucei [2]: no trypanocidal activity was detected
- constriction of motility following hyperactivation [3, 7]: subsequent constriction does not occur
- hyperactivation of motility [3, 7]: some hyperactivation
- motility approximately 30 sec after addition ([3]; 40 µM peptide, DIC video microscopy, representative cells (Movies S2, S3)): hyperactivated motility
- insertion depth of native tryptophan, position 5 ([1]; 500 nM peptide, 200 µg/ml brominated egg PC liposomes, PBS, 37°C, 22 h): approximately 1.6 Å
- quenching of N-terminal tryptophan (position 1) ([1]; Trp-substituted variant W1, suggests it does not intercalate into the hydrocarbon region): inefficiently quenched
- insertion depth of tryptophan at position 13 ([1]; Trp-substituted variant W13, 500 nM peptide, 200 µg/ml brominated egg PC liposomes, PBS, 37°C, 22 h): approximately 4.7 Å
- insertion depth of C-terminal tryptophan (position 20) ([1]; Trp-substituted variant W20, 500 nM peptide, 200 µg/ml brominated egg PC liposomes, PBS, 37°C, 22 h): approximately 11.2 Å
- F1/F2 ± S.D. [1, 6]: 0.9202 ± 0.1260
- membrane interaction (release of entrapped calcein from liposomes) [4]: exhibit membrane interaction
- binding to BSF T. brucei [5]: binding to BSF T. brucei

Sequence: SDLGAVISLLLGGRQLFW [SHP-1∆W18, SHP-1 tryptophan variant, Trp at position 18]
- F1/F2 ± S.D. [1, 6]: 0.9285 ± 0.1557

Sequence: SDLGAVIWLLLGGRQLFA [SHP-1∆W8, SHP-1 tryptophan variant, Trp at position 8]
- F1/F2 ± S.D. [1, 6]: 0.9767 ± 0.0717

Sequence: WDLGAVISLLLGGRQLFA [SHP-1∆W1, SHP-1 tryptophan variant, Trp at position 1]
- F1/F2 ± S.D. [1, 6]: 0.8897 ± 0.1112
